Laboratory results reported in patent publication EP0284180A1, “Prostaglandins E and anti ulcers containing same” (Kabushiki Kaisha Ueno Seiyaku Oyo Kenkyujo, priority 1987, dated 1988).
Like-named read-outs stand apart in the source and are kept apart here.

Columns and labels:
[1] = system: trachea; assay: Tracheal relaxation, isolated tracheal rings constricted with histamine; parameters: species or system male gunea pig; settings: guinea pig trachea, inhibition of constriction under histamine 5.4 x 10^-4 M, IC50 class, read-out: Tracheal relaxation effect
Experimental: A male gunea pig (of about 300 g in weight) was struck to death, and its artery was cut to dehematize. Its trachea, after having been extracted, was cut open lengthwise on the opposite side to the trachea smooth muscle, and seven tracheal rings were connected by string in a chain-like pattern, same being hung in a Magnus tube.
Trachea was brought to rest for 60 - 90 minutes and until tracheal equilibrium was reached. Thereafter, 5.4 x 10 ^-4 M of histamine was administered in such manner that it was cumulatively administered at 6 minutes' intervals after a constriction peak was reached. Tracheal relaxation with the material tested was expressed in terms of ratio of constrictional inhibition under histamine administering, and values for IC50 were determined. + : IC50 < 10^-7 M ± : 10^-5 M ≦ IC50 ≦ 10^-7 M -: 10^-5 M < IC50

[2] = system: ileum; assay: Intestinal constriction effect, isolated ileum in Magnus tube; parameters: species or system male Wister rat; settings: rat ileum, constriction relative to acetylcholine, ED50 class
Experimental: A male Wister rat (of 250 - 300g in weight) was struck to death, and immediately its carotid artery was cut to dehematize. An ileum portion located about 10 cm from the cecum was extracted, and after its contents were washed away with a Tyrode liquid, a 1.5 - 2 cm long part of it was cut off and hung in a Magnus tube.
The constriction of the ileum was brought to rest for 15 - 20 minutes until the ileum was allowed to be stabilized, and subsequently the ileum was constricted with […]/mt of acetylcholine. After constructions of same magnitude were had two times, the material to be tested was cumulatively administered at one- minute intervals.
Constrictions with the material tested were expressed in terms of ratios, based on constriction per 10 g/m t of acetylcholine, and values for ED50 were determined. + : EDso < 10^-6 M ±: 10^-4 M ≦ ED50 ≦ 10^-6 M -: 10^-4 M < ED50

[3] = system: uterus; assay: Uterine constriction, isolated uterus in Magnus tube; parameters: species or system female rat; settings: rat uterus, constriction relative to 1 mU oxytocin = 100, EC50 class; read-out: Uterus constriction effect
Experimental: A female rat (of 150g in weight) was dehematized to death, and its uterus was taken out, which was cut to a length of 1.5 - 2.5 cm. The cut uterus was hung in a magnus tube. The uterus was constricted several times with 1 mU Oxytocin. After stable uterine movement was obtained, the material to be tested was independently administered. Constrictions with the material were expressed in terms of ratios based on constriction of 1 mU of oxytocin = 100, and values of EC50 were determined on the following standards. +:EC50 < 10^-7 M ±:10^-5 M ≦ EC50 ≦ 10^-7 M -: 10^-5 M < ECso

[4] = system: confinement-stress induced ulcers through immersion in water; assay: Confinement-stress induced ulcers through immersion in water (hydrorestraint stress ulcer preventing effect); type: in vivo, male rats of the Crj : Wistar strain; settings: for inhibition at 1 mg/kg: dosage 1 mg/kg; for inhibition at 5 mg/kg: dosage 5 mg/kg; for inhibition at 0.3 mg/kg: dosage 0.3 mg/kg; for inhibition at 3 mg/kg: dosage 3 mg/kg; for inhibition at 10 mg/kg: dosage 10 mg/kg
Experimental: (§1) As test samples, we used the PGE as obtained in Examples 2 to 52 as described herein, 13,14-dihydro-15-keto-PGE2 (produced by Funakoshi & Co.) being employed as a control reference.
(§2) Each group of test animals used consisted of 8 to 10 male rats of the Crj : Wistar strain, weighing 180 to 230 g. Test animals were fasted for 24 hours before the oral administration of the test samples; in the case of development of confinement-stress induced ulcers through immersion in water, 10 minutes after oral administration of the test specimens, the aminals were confined in a stress cage developed by Univ. of Tokyo, then immersed up to the ensiform process of sternum in water at 23°C for 4 hours and sacrificed; in the case of formation of indomethacin-induced ulcers, shortly after the materials were given, animals were given indomethacin orally at a dose of 10 mg/kg and sacrificed after 5 hours.
(§3) The stomacks were taken out, followed by fixation with 1 % formalin, and incised along the greater curvature to carry out investigation under an illuminated magnifier for ulceration. The degree and extent of lesion and ulcer were rated based on the ulceration index being classified into the following five numerical categories: • 0: normal, with no lesion detected; • 1: bleeding or erosion of mucosa; • 2: development of less than 5 small ulcers (not greater than 2 mm in diameter); • 3: generation of not less than 5 small ulcers or a large ulcer (not less than 2 mm in diameter); • 4: generation of not less than 2 large ulcers.
(§4) On the basis of the criteria that the rats with the ulceration index of not less than "2", the ulcer inhibition rate (EDso) was calculated from ulcer-generation ratio in the control and the ratio of the test specimens.

[5] = system: indomethacin-induced ulcers; assay: Indomethacin-induced ulcers (indomethacin ulcer preventing effect); type: in vivo, male rats of the Crj : Wistar strain; settings: rats; for ED50: ulcer inhibition rate (Table 2); for Ulcer index (aver. ± SE): indomethacin 10 mg/kg oral ulcer, index 0-4
Experimental: as §1, §2, §3, §4

[6] = Rattus norvegicus, po, hydrorestraint stress-ulcer preventing effect, procedure of Test Example 1 (Table 3), read-out: Ulcer inhibiting effect ED50
[7] = Rattus norvegicus, stress ulcer, rats, oral, read-out: Inhibition factor (%)
[8] = Rattus norvegicus, stress ulcer, rats, oral, ulcer inhibition rate, ulceration index not less than 2 counted (Table 1), read-out: ED50
[9] = Rattus norvegicus, indomethacin ulcer, oral, dosage 1 mg/kg, read-out: Inhibition factor (%)
[10] = Rattus norvegicus, indomethacin ulcer, oral, dosage 3 mg/kg, read-out: Inhibition factor (%)
[11] = Rattus norvegicus, indomethacin ulcer, oral
[12] = Rattus norvegicus, indomethacin ulcer, oral, dosage 10 mg/kg, read-out: Inhibition factor (%)
[13] = Rattus norvegicus, indomethacin ulcer, oral, dosage 20 mg/kg, read-out: Inhibition factor (%)

Compound: CCCCC[C@H](O)/C=C/[C@H]1[C@H](O)CC(=O)[C@@H]1C/C=C\CCCC(=O)O [A]
- IC50 [1]: < 100 nM
- EC50 [2]: < 1000 nM
- EC50 [3]: < 100 nM
- ED50 [4, 6]: 0.5 mg/kg

Compound: CCCCCC(=O)CC[C@H]1[C@H](O)CC(=O)[C@@H]1C/C=C\CCCC(=O)OCCC [(4)]
- inhibition at 1 mg/kg [4, 7]: 16.7%
- inhibition at 5 mg/kg [4, 7]: 44.4%
- ED50 [4, 8]: 7 mg/kg

Compound: CCCCCC(=O)CC[C@H]1[C@H](O)CC(=O)[C@@H]1CC(=O)CCCCC(=O)OCC [(9)]
- inhibition at 1 mg/kg [5, 9]: 37.5%
- inhibition at 3 mg/kg [5, 10]: 50.5%
- ED50 [5, 11]: 3 mg/kg
- Ulcer index (aver. ± SE) ([5]; dosage 1 mg/kg): 2.1±0.3
- Ulcer index (aver. ± SE) ([5]; dosage 3 mg/kg): 1.5±0.3
- inhibition at 0.3 mg/kg [4, 7]: 37.5%
- inhibition at 1 mg/kg [4, 7]: 75%
- ED50 [4, 8]: 0.45 mg/kg

Compound: CCCCCC(=O)CC[C@H]1[C@H](O)CC(=O)[C@@H]1CC(=O)CCCCC(=O)OCC (racemic) [(11)]
- inhibition at 3 mg/kg [5, 10]: 0%
- inhibition at 10 mg/kg [5, 12]: 50%
- ED50 [5, 11]: 10 mg/kg
- Ulcer index (aver. ± SE) ([5]; dosage 3 mg/kg): 2.6±0.3
- Ulcer index (aver. ± SE) ([5]; dosage 10 mg/kg): 2.0±0.2
- inhibition at 1 mg/kg [4, 7]: 25%
- inhibition at 3 mg/kg [4, 7]: 57.1%
- inhibition at 10 mg/kg [4, 7]: 85.7%
- ED50 [4, 8]: 2.4 mg/kg

Compound: CCCCCC(=O)CC[C@H]1[C@H](O)CC(=O)[C@@H]1C/C=C\CCCC(=O)OC(C)C [(5)]
- inhibition at 1 mg/kg [4, 7]: 14.3%
- inhibition at 5 mg/kg [4, 7]: 44%
- ED50 [4, 8]: 6.5 mg/kg

Compound: CCCCCC(=O)CC[C@H]1[C@H](O)CC(=O)[C@@H]1CC(=O)CCCCC(=O)OCCCC [(10)]
- inhibition at 1 mg/kg [4, 7]: 25.5%
- inhibition at 3 mg/kg [4, 7]: 78.4%
- ED50 [4, 8]: 1.5 mg/kg

Compound: CCCCCC(=O)CC[C@H]1[C@H](O)CC(=O)[C@@H]1C/C=C\CCCC(=O)O [Material (1), 13, 14-dihydro-15-keto-PGE2, reference compound]
- IC50 ([1]; Cavia porcellus): 100 to 10000 nM
- EC50 [2]: > 100000 nM
- EC50 [3]: 100 to 10000 nM
- ED50 [4, 6]: > 20 mg/kg
- ulcer inhibiting effect ([4]; conclusion in words from Table 3): no pharmacological or physiological effect
- antiulcerative effect ([4]; conclusion in words from Tables 1 and 2): no antiulcerative effect

Compound: CCCCCC(=O)CC[C@H]1[C@H](C)CC(=O)[C@@H]1CC(=O)CCCCC(=O)OC [(38)]
- inhibition at 0.3 mg/kg [4, 7]: 8.1%
- inhibition at 1 mg/kg [4, 7]: 45.9%
- inhibition at 3 mg/kg [4, 7]: 79.7%
- ED50 [4, 8]: 1.5 mg/kg

Compound: CCCCCC(=O)CC[C@H]1[C@H](O)CC(=O)[C@@H]1C/C=C\CCCC(=O)OC [(2)]
- inhibition at 3 mg/kg [5, 10]: 30%
- inhibition at 6 mg/kg ([5]; Rattus norvegicus, indomethacin ulcer, oral, dosage 6 mg/kg, read-out: Inhibition factor (%)): 50%
- inhibition at 20 mg/kg [5, 13]: 100%
- ED50 [5, 11]: 6 mg/kg
- Ulcer index (aver. ± SE) ([5]; dosage 3 mg/kg): 1.9±0.4
- Ulcer index (aver. ± SE) ([5]; dosage 6 mg/kg): 1.4±0.3
- Ulcer index (aver. ± SE) ([5]; dosage 20 mg/kg): 0.4±0.2
- inhibition at 5 mg/kg [4, 7]: 58.3%
- inhibition at 15 mg/kg ([4]; Rattus norvegicus, stress ulcer, rats, oral, dosage 15 mg/kg, read-out: Inhibition factor (%)): 87.5%
- ED50 [4, 8]: 4 mg/kg

Compound: CCCCCC(=O)CC[C@H]1[C@H](O)CC(=O)[C@@H]1C/C=C\CCCC(=O)OCC [(3)]
- inhibition at 3 mg/kg [5, 10]: 42.9%
- inhibition at 10 mg/kg [5, 12]: 71.4%
- ED50 [5, 11]: 4.4 mg/kg
- Ulcer index (aver. ± SE) ([5]; dosage 3 mg/kg): 1.7±0.4
- Ulcer index (aver. ± SE) ([5]; dosage 10 mg/kg): 1.0±0.3
- inhibition at 1 mg/kg [4, 7]: 25%
- inhibition at 3 mg/kg [4, 7]: 86.1%
- inhibition at 10 mg/kg [4, 7]: 100%
- ED50 [4, 8]: 1.5 mg/kg

Compound: CCOC(=O)CCCCC(=O)C[C@H]1C(=O)C[C@@H](O)[C@@H]1CCC(=O)CCCC(C)C [(36)]
- inhibition at 0.3 mg/kg [4, 7]: 22.6%
- inhibition at 1 mg/kg [4, 7]: 57%
- ED50 [4, 8]: 0.8 mg/kg

Compound: CCCCCC(=O)CC[C@H]1[C@H](O)CC(=O)[C@@H]1CC(=O)CCCCC(=O)OC [(8)]
- inhibition at 1 mg/kg [5, 9]: 14.3%
- inhibition at 3 mg/kg [5, 10]: 42.9%
- ED50 [5, 11]: 3.8 mg/kg
- Ulcer index (aver. ± SE) ([5]; dosage 1 mg/kg): 2.3±0.4
- Ulcer index (aver. ± SE) ([5]; dosage 3 mg/kg): 1.7±0.3
- inhibition at 0.3 mg/kg [4, 7]: 30.6%
- inhibition at 1 mg/kg [4, 7]: 62.5%
- ED50 [4, 8]: 0.6 mg/kg

Compound: CCCCCC(=O)CC[C@H]1[C@H](C)CC(=O)[C@@H]1CC(=O)CCCCC(=O)OCC [(39)]
- inhibition at 0.3 mg/kg [4, 7]: 30.2%
- inhibition at 1 mg/kg [4, 7]: 77.5%
- inhibition at 3 mg/kg [4, 7]: 85.3%
- ED50 [4, 8]: 0.5 mg/kg

Compound: CCCCCC(=O)CC[C@H]1[C@H](O)CC(=O)[C@@H]1CCCCCCC(=O)OCC [(7)]
- inhibition at 3 mg/kg [4, 7]: 37.5%
- inhibition at 10 mg/kg [4, 7]: 75%
- ED50 [4, 8]: 4.5 mg/kg

Compound: CCCCCC(=O)CC[C@H]1[C@H](O)CC(=O)[C@@H]1C/C=C\CCCC(=O)O [(1)]
- inhibition at 20 mg/kg [5, 13]: 4%
- ED50 [5, 11]: > 20 mg/kg
- Ulcer index (aver. ± SE) ([5]; dosage 20 mg/kg): 2.4±0.4
- inhibition at 20 mg/kg ([4]; Rattus norvegicus, stress ulcer, rats, oral, dosage 20 mg/kg, read-out: Inhibition factor (%)): 6.3%
- ED50 [4, 8]: > 20 mg/kg

Compound: CCCCCC(=O)CC[C@H]1[C@H](O)CC(=O)[C@@H]1CCCCCCC(=O)OC [(6)]
- inhibition at 3 mg/kg [4, 7]: 28%
- inhibition at 10 mg/kg [4, 7]: 72.2%
- ED50 [4, 8]: 5.5 mg/kg

Compound: CCCCCCC(=O)CC[C@H]1[C@H](O)CC(=O)[C@@H]1CC(=O)CCCCC(=O)OCC [(37)]
- inhibition at 1 mg/kg [4, 7]: 8.1%
- inhibition at 3 mg/kg [4, 7]: 45.9%
- inhibition at 6 mg/kg ([4]; Rattus norvegicus, stress ulcer, rats, oral, dosage 6 mg/kg, read-out: Inhibition factor (%)): 79.7%
- ED50 [4, 8]: 3 mg/kg
